Experimental data from BigSolDB 2.1.

CC(C)[C@H](N)C(=O)O
solubility (mole fraction)
Conditions	283.15 K	288.15 K	293.15 K	298.15 K	303.15 K	308.15 K	313.15 K	318.15 K	323.15 K	328.15 K
in 1,4-dioxane	–	6.7e-05	8.7e-05	0.000121	0.000169	0.000223	0.000281	0.000346	0.00041	0.000486
in acetone	3.1e-05	4.1e-05	5.6e-05	7.5e-05	0.0001	0.000132	0.000171	0.000216	0.000256	–
in acetonitrile	2.4e-05	3.3e-05	4.3e-05	5.6e-05	6.8e-05	8.2e-05	9.9e-05	0.000116	0.000136	–
in ethanol	0.000254	0.00026	0.000272	0.000286	0.000303	0.00032	0.000338	0.000357	0.00038	–
in ethyl acetate	3.1e-05	3.7e-05	4.6e-05	5.7e-05	7.1e-05	8.4e-05	0.0001	0.000119	0.000136	–
in isobutanol	5e-05	6.1e-05	7.8e-05	9.9e-05	0.000123	0.000151	0.000185	0.000218	0.000258	–
in isopropanol	1.6e-05	1.8e-05	2.5e-05	3.2e-05	4.2e-05	5.6e-05	7e-05	9e-05	0.00011	–
in methanol	0.000585	0.000601	0.000624	0.000652	0.000684	0.000717	0.000754	0.000792	0.000834	–
in methyl acetate	3e-05	3.2e-05	3.4e-05	3.6e-05	4.2e-05	5.1e-05	6.7e-05	8.8e-05	0.000115	–
in n-butanol	2.4e-05	3.1e-05	4.7e-05	6.9e-05	9.1e-05	0.000115	0.000139	0.00017	0.000203	–
in n-propanol	1.5e-05	1.9e-05	2.3e-05	3e-05	3.7e-05	4.6e-05	5.5e-05	6.4e-05	7.7e-05	–
in water	0.00915	0.00921	0.00937	0.00954	0.00976	0.00998	0.0102	0.0105	0.0108	–
